This note sets out measurements from EP4089103A1, “CLPCP PROTEASE-BINDING CYCLIC HEPTAPEPTIDES” (priority 2021, dated 2022).

Values joined by “and” are separate entries in the source; they are usually repeats but may differ in a detail not shown here. Equal entries are not always repeated.

For data set [1] the following is noted: from H-Val-MeLeu-Ile-Trp(Boc)-MeGlu(tBu)-Ala-Phe-OH; amide bond; 21-membered ring; T3P/DIEA; DCM; 0.75 mM; 25.0 °C.
For data set [2] the following is noted: from H-Val-MeLeu-Ile-Trp(Boc)-MeGlu(tBu)-Ala-Phe-OH; amide bond; 21-membered ring; T3P/DIEA; DCM; 0.75 mM; 25.0 °C. This is another data set of the same source.
In data set [3] the test system is BRDTBD1 expressed in M. smegmatis cells. Put plainly: In vivo degradation assay in live mycobacteria, capillary western (Wes). In kind it is cell-based, M. smegmatis mc^2-155. To be noted: 100 µM, 10 µM or 1 µM BacPROTAC-3, 100 µM sCym-1 or 100 µM JQ1; 2 hours incubation; Figure 3. The procedure: After validating the activity of the compound Cym_bacPROTAC_3 in vitro, the compound was investigated in an in vivo degradation assay in a cellular environment. For the in vivo degradation assay Msm cells stably expressing BRDTBD1 were used. The culture was treated with the compound Cym_bacPROTAC_3 or alternatively, the individual building blocks sCym-1 and JQ1. After two hours incubation, BRDTBD1 levels were quantified using capillary western as detailed below.
A stationary culture of M. smegmatis mc^2-155 carrying a plasmid BRDTBD1 expression was diluted 1:200 in 50 mL 7H9 medium supplemented with 50 µg/mL hygromycin. The culture was grown at 37 °C with vigorous shaking to an OD600 of ∼1. Expression of BRDTBD1 was then induced by addition of 200 µL 50% acetamide in H2O. […]
The amounts of BRDTBD1 in the lysates were quantified using Wes (ProteinSimple), a capillary electrophoresis-based western blot technology. Bacterial lysates were diluted 2-fold and analysed using the 12-230 kDa Wes Separation Module (Protein simple, SM-W004) following the manufacturer's instructions. […] BRDTBD1 was detected using the Anti-Rabbit Detection Module for Wes (ProteinSimple, DM-001), which includes a peroxidase-conjugated secondary antibody and a chemiluminescent substrate. Results were analysed using the Compass for SW software (ProteinSimple). […]

Data set [4] relates to mycobacterial proteome (2912 proteins) incl. BRDTBD1. Put plainly: Selectivity of protein degradation, TMT mass spectrometric analysis of Msm lysates. In kind it is cell-based, M. smegmatis. To be noted: TMT MS, triplicate analysis, Figure 4. The procedure: To address this point, a tandem mass tag (TMT) mass spectrometric (MS) analysis of Msm lysates was performed.
Thus, the TMT MS analysis provides compelling evidence that the compound Cym_bacPROTAC_3 is capable of inducing degradation of the BRDTBD1 substrate in a highly specific and efficient manner.

`CC[C@H](C)[C@@H]1NC(=O)[C@H](CC(C)C)N(C)C(=O)[C@H](C(C)C)NC(=O)[C@H](Cc2ccccc2)NC(=O)[C@H](C)NC(=O)[C@H](CCC(=O)OC(C)(C)C)N(C)C(=O)[C@H](Cc2cn(C(=O)OC(C)(C)C)c3ccccc23)NC1=O` [H-Val-MeLeu-Ile-Trp(Boc)-MeGlu(tBu)-Ala-Phe-OH]: the ring closure, crude yield in data set [1] is 52% and 54%. Moreover, the ring closure, yield after HPLC in data set [2] is 39%.

For `Cc1sc2c(c1C)C(c1ccc(Cl)cc1)=N[C@@H](CC(=O)OC(C)(C)C)c1nnc(C)n1-2` [JQ1], in data set [3], the “BRDTBD1 levels after treatment” value was “did not affect BRDTBD1 levels”. In addition, the “change in protein abundance versus vehicle (DMSO)” value in data set [4] is “did not affect BRDTBD1 levels and did also not cause global effects”.
